According to ChEMBL document CHEMBL5257035, “Nucleoside Derived Antibiotics to Fight Microbial Drug Resistance: New Utilities for an Established Class of Drugs?” (J Med Chem, 2016):
Converted amounts (≈) assume the structure as drawn.

How the values were obtained:
[1] = system: Bacillus subtilis; assay: Antibacterial activity against Bacillus subtilis ATCC 6633 assessed as bacterial growth inhibition by agar diffusion method; format: functional
[2] = Toxicity in rat; conditions: in vivo
[3] = system: Bacillus subtilis; assay: Antibacterial activity against Bacillus subtilis ATCC 6633 assessed as reduction in bacterial cell growth; format: functional
[4] = system: Mycobacterium tuberculosis; assay: Antimycobacterial activity against Mycobacterium tuberculosis H37Rv assessed as inhibition of bacterial growth; format: functional
[5] = system: Mycolicibacterium smegmatis; assay: Antimycobacterial activity against Mycobacterium smegmatis SG 125A assessed as inhibition of bacterial growth; format: functional
[6] = target: Glutamine--tRNA ligase (Escherichia coli (strain K12), UniProt P00962); assay: Binding affinity to Escherichia coli K12 glutaminyl-tRNA synthetase assessed as inhibition constant
Chain of Glutamine--tRNA ligase (P00962 whole entry): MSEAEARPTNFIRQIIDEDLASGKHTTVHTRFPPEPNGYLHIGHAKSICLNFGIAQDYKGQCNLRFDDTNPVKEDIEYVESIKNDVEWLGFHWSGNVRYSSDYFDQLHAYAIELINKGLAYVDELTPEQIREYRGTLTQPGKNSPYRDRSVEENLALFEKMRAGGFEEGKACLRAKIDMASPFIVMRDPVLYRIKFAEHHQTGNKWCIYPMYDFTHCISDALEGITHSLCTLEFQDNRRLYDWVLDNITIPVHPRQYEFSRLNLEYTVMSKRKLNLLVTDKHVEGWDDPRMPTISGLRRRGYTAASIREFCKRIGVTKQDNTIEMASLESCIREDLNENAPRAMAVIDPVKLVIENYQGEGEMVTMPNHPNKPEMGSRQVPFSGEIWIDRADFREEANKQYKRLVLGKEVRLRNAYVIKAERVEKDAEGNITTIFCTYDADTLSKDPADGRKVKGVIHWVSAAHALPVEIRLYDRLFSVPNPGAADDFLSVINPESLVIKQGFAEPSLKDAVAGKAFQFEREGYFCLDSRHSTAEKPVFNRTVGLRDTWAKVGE

[7] = target: Hypoxanthine-guanine phosphoribosyltransferase (Homo sapiens, UniProt P00492); assay: Binding affinity to human HGPRT assessed as inhibition of constant
Chain of Hypoxanthine-guanine phosphoribosyltransferase (P00492 whole entry): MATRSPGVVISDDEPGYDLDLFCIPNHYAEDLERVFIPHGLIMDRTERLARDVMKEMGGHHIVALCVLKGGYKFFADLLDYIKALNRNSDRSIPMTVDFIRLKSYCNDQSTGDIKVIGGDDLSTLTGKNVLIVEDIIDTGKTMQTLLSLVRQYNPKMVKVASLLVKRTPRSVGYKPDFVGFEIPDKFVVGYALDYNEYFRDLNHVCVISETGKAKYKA

[8] = system: Mycobacterium tuberculosis; assay: Antimycobacterial activity against Mycobacterium tuberculosis H37Rv assessed as reduction in microbial growth after 7 days by alamar blue assay; format: functional, organism-based; conditions: 168 h
[9] = system: Mycobacterium tuberculosis; assay: Antimycobacterial activity against Mycobacterium tuberculosis assessed as reduction in microbial growth; format: functional
[10] = Inhibition of Escherichia coli topoisomerase 4
[11] = Inhibition of GMP synthase (unknown origin); parameters: species or system Homo sapiens
[12] = system: Klebsiella pneumoniae; assay: Antibacterial activity against Klebsiella pneumoniae assessed as bacterial growth inhibition; format: functional
[13] = system: Escherichia coli; assay: Antibacterial activity against Escherichia coli K12 assessed as bacterial growth inhibition measured after 24 hrs by micro broth dilution method; format: functional
[14] = system: Bacillus cereus; assay: Antibacterial activity against Bacillus cereus ATCC 11778 assessed as bacterial growth inhibition; format: functional
[15] = Binding affinity to Escherichia coli methionyl adenylate synthetase
[16] = target: Methionine--tRNA ligase (Escherichia coli K-12, UniProt P00959); assay: Inhibition of Escherichia coli K12 methionyl tRNA synthetase
Chain of Methionine--tRNA ligase (P00959 whole entry): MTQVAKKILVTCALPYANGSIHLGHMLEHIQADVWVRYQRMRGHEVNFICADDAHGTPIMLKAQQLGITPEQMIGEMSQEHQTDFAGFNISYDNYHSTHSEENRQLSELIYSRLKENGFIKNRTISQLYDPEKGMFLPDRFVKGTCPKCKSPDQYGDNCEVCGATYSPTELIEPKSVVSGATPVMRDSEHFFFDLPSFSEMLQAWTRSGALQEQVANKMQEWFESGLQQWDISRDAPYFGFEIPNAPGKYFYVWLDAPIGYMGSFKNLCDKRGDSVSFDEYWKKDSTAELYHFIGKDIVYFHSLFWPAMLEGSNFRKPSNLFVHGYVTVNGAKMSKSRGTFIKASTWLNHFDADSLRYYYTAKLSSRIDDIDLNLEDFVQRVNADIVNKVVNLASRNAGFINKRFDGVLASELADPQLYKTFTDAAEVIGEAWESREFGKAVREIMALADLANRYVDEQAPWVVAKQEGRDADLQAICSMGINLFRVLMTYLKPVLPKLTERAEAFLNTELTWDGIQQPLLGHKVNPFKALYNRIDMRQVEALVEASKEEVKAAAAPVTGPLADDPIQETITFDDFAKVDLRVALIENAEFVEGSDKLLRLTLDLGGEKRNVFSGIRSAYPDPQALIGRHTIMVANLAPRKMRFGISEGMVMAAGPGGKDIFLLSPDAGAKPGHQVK

For CCC(C)CCCCCCCCCCC(=O)N[C@H]1[C@H](O[C@@H]2O[C@@H](CO)[C@H](O)[C@H](O)[C@H]2NC(C)=O)O[C@H](C[C@@H](C)[C@H]2O[C@@H](n3ccc(=O)[nH]c3=O)[C@H](O)[C@@H]2O)[C@H](O)[C@@H]1O (some centres not stated), which MIC [1] is on record?
The MIC was 0.1 µg/mL (≈ 0.12 µM).

And the LD50 [2]?
The LD50 was 0.137 mg/kg.

What about the MIC [3] of the same compound?
Its MIC is 0.1 µg/mL (≈ 0.12 µM).

With CCC(C)CCCCCCCC/C=C/C(=O)N[C@H]1[C@H](O[C@@H]2O[C@@H](CO)[C@H](O)[C@H](O)[C@H]2NC(C)=O)O[C@H](C[C@@H](C)[C@H]2O[C@@H](N3CCC(=O)NC3=O)[C@H](O)[C@@H]2O)[C@H](O)[C@@H]1O (some centres not stated) as the compound, how does the MIC [1] read?
The MIC was 0.31 µg/mL (≈ 0.373 µM).

And the MIC [4]?
Its MIC is 10 µg/mL (≈ 12 µM).

And the MIC [5]?
The MIC was 3.1 µg/mL (≈ 3.73 µM).

For NC(=O)CCC(N)COP(=O)(O)OC[C@H]1O[C@@H](n2cnc3c(N)ncnc32)[C@H](O)[C@@H]1O (some centres not stated), which Ki [6] is on record?
Its Ki is 280 nM.

Which Ki [7] does the source give for CCOC(=O)[C@H](Cc1ccccc1)NP(=O)(N[C@@H](Cc1ccccc1)C(=O)OCC)OCOCCN here?
The Ki was 690 nM.

What about the IC50 [8] of the same compound?
The IC50 was 5000 nM.

What about the MIC [9] of the same compound?
Its MIC is 4.5 µM.

With CCC(C)C(N)C(=O)NS(=O)(=O)OC[C@H]1O[C@@H](CCn2nnc(-c3ccccc3)n2)[C@H](O)[C@@H]1O (some centres not stated) as the compound, how does the Ki [10] read?
The Ki was 1.3 µg/mL (≈ 2.61 µM).

For NC(=O)c1ncn([C@@H]2O[C@H](CO)[C@@H](O)[C@H]2O)c1O [MIZORIBINE], which Ki [11] is on record?
Its Ki is 100000 nM.

With Cc1cn([C@H]2C[C@H](N=[N+]=[N-])[C@@H](COC(=O)C(=O)N[C@@H](CC(C)C)C(=O)O)O2)c(=O)[nH]c1=O as the compound, how does the MIC [12] read?
The MIC was 0.125 µg/mL (≈ 0.276 µM).

What does the source list for CSCC[C@H](N)C(=O)OC[C@H]1O[C@@H](n2cnc3c(N)ncnc32)[C@H](O)[C@@H]1O?
MIC [13]: 0.5 µg/mL (≈ 1.25 µM); MIC [14]: 32 µg/mL (≈ 80.3 µM); Ki [15]: 10900 nM

Which IC50 [16] does the source give for CCC(C)C(N)C(=O)NS(=O)(=O)OC[C@H]1O[C@@H](n2cnc3c(N)nc(I)nc32)[C@H](O)[C@@H]1O (some centres not stated) here?
Its IC50 is 14 nM.
